The supplement of paper PMC10307832

Tests used:
Experiment in all cases: relative viability (nuclei count vs DMSO), 5 days (fraction); higher = more cells survive
[1] = compound: NCC(=O)Nc1ccc(-n2nc(C(F)(F)F)cc2-c2ccc3c(ccc4ccccc43)c2)cc1 + Nc1ncn([C@H]2C[C@H](O)[C@@H](CO)O2)c(=O)n1 [Decitabine] (partner 2 µM)
Method in brief: (§1)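 Nuclei were stained with Hoechst during a one-step fixation (final 0.05% Triton X-100, 1% formaldehyde, 1 ug/ml Hoechst) carried out 5 days after dosing, then counted on 4× images. The cells, lung cancer lines in 1536-well plates, had been dosed by pin tool the day after seeding with one drug alone or a fixed anchor-drug dose plus five library-drug doses (not always all listed) in √10 steps. Relative viability is the nuclei count in treated wells divided by that in vehicle wells, and each value is the median of duplicate plates.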

[2] = compound: C1CSC2=C(C(=O)N1)SC3=C2C=C(C=C3)O [kb NB 142-70] + Nc1ncn([C@H]2C[C@H](O)[C@@H](CO)O2)c(=O)n1 [Decitabine] (partner 2 µM)
Method in brief: as §1

[3] = compound: NCC(=O)Nc1ccc(-n2nc(C(F)(F)F)cc2-c2ccc3c(ccc4ccccc43)c2)cc1 + CC1(C)CCC(c2ccc(Cl)cc2)=C(CN2CCN(c3ccc(C(=O)NS(=O)(=O)c4ccc(N[C@H](CCN5CCOCC5)CSc5ccccc5)c(S(=O)(=O)C(F)(F)F)c4)cc3)CC2)C1 [Navitoclax] (partner 0.5 µM)
Method in brief: as §1

[4] = compound: C1CSC2=C(C(=O)N1)SC3=C2C=C(C=C3)O [kb NB 142-70] + O=C(CCCCCCC(=O)Nc1ccccc1)NO [Vorinostat] (partner 1 µM)
Method in brief: as §1

kb NB 142-70 + Foretinib = compound: C1CSC2=C(C(=O)N1)SC3=C2C=C(C=C3)O [kb NB 142-70] + COc1cc2c(Oc3ccc(NC(=O)C4(C(=O)Nc5ccc(F)cc5)CC4)cc3F)ccnc2cc1OCCCN1CCOCC1 [Foretinib] (partner 0.25 µM)
Method in brief: as §1

| Cell Line | relative viability ([1]; first compound 0.02 µM) | relative viability ([1]; first compound 0.06325 µM) | relative viability ([1]; first compound 0.2 µM) | relative viability ([1]; first compound 0.6325 µM) | relative viability ([1]; first compound 2 µM) | relative viability ([2]; first compound 0.1 µM) | relative viability ([2]; first compound 1 µM) | relative viability ([2]; first compound 3.162 µM) | relative viability ([3]; first compound 0.02 µM) | relative viability ([3]; first compound 0.06325 µM) | relative viability ([3]; first compound 0.2 µM) | relative viability ([3]; first compound 0.6325 µM) | relative viability ([3]; first compound 2 µM) | relative viability ([4]; first compound 0.1 µM) | relative viability ([4]; first compound 1 µM) | relative viability ([4]; first compound 3.162 µM) | relative viability (kb NB 142-70 + Foretinib; first compound 0.1 µM) | relative viability (kb NB 142-70 + Foretinib; first compound 1 µM) | relative viability (kb NB 142-70 + Foretinib; first compound 3.162 µM) |
| --- | --- | --- | --- | --- | --- | --- | --- | --- | --- | --- | --- | --- | --- | --- | --- | --- | --- | --- | --- |
| LU99A | 0.817 | 0.987 | 0.838 | 0.843 | 0.91 | 1.09 | 0.9 | 0.708 | 0.756 | 0.799 | 0.87 | 0.891 | 0.824 | 0.486 | 0.443 | 0.33 | 0.781 | 0.765 | 0.569 |
| LXF-289 | 0.376 | 0.388 | 0.371 | 0.416 | 0.333 | 0.392 | 0.369 | 0.365 | 0.918 | 0.977 | 0.943 | 0.954 | 0.861 | 0.713 | 0.711 | 0.51 | 0.973 | 1.01 | 0.813 |
| NCI-H23 | 0.32 | 0.357 | 0.317 | 0.311 | 0.324 | 0.34 | 0.266 | 0.251 | 0.821 | 0.847 | 0.801 | 0.903 | 0.855 | 0.703 | 0.583 | 0.298 | 1.06 | 0.819 | 0.642 |
| NCI-H322M | 0.723 | 0.732 | 0.716 | 0.637 | 0.724 | 0.675 | 0.72 | 0.616 | 1.18 | 1.18 | 1.34 | 1.18 | 1.1 | 0.942 | 1.06 | 0.926 | 0.891 | 1.04 | 1.04 |
| NCI-H441 | 0.274 | 0.276 | 0.225 | 0.266 | 0.248 | 0.259 | 0.213 | 0.162 | 0.521 | 0.577 | 0.654 | 0.627 | 0.539 | 0.89 | 0.844 | 0.644 | 0.939 | 1.15 | 0.459 |
| NCI-H460 | 0.486 | 0.525 | 0.478 | 0.479 | 0.366 | 0.538 | 0.606 | 0.354 | 1.17 | 1.11 | 1.13 | 1.07 | 1.06 | 0.733 | 0.755 | 0.436 | 0.951 | 1.07 | 0.985 |
| NCI-H520 | 0.562 | 0.546 | 0.505 | 0.449 | 0.587 | 0.506 | 0.43 | 0.357 | 0.979 | 1.17 | 1.34 | 1.05 | 1.08 | 0.775 | 0.681 | 0.304 | 0.718 | 0.866 | 0.655 |
| NCI-H596 | 1.13 | 1.01 | 1.07 | 0.995 | 1.12 | 0.909 | 1.09 | 0.766 | 0.593 | 0.968 | 1.04 | 1.1 | 0.841 | 0.656 | 0.67 | 0.538 | 0.887 | 0.866 | 0.89 |
| NCI-H647 | 0.44 | 0.436 | 0.423 | 0.436 | 0.301 | 0.383 | 0.477 | 0.36 | 1.02 | 1.02 | 1.23 | 1.03 | 1.01 | 0.716 | 0.597 | 0.492 | 1.28 | 1.28 | 1.24 |
| NCI-H727 | 0.941 | 0.647 | 0.869 | 0.874 | 0.812 | 0.915 | 0.868 | 0.768 | 0.464 | 0.568 | 0.52 | 0.474 | 0.469 | 1.35 | 1.18 | 1.24 | 1.06 | 0.969 | 1.15 |
| NCI-H838 | 0.489 | 0.494 | 0.504 | 0.441 | 0.335 | 0.431 | 0.454 | 0.427 | 1.19 | 1.12 | 1.34 | 1 | 1 | 0.782 | 0.77 | 0.778 | 1.02 | 1.06 | 1.04 |
| NCI-H1355 | 0.371 | 0.362 | 0.403 | 0.408 | 0.347 | 0.39 | 0.355 | 0.342 | 0.921 | 0.895 | 1 | 0.999 | 0.978 | 0.605 | 0.643 | 0.657 | 0.946 | 1.06 | 0.975 |
| NCI-H1395 | 0.667 | 0.735 | 0.673 | 0.692 | 0.738 | 0.635 | 0.726 | 0.609 | 1.12 | 1.16 | 1.16 | 1.11 | 1.22 | 0.7 | 0.748 | 0.701 | 0.942 | 1.04 | 0.946 |
| NCI-H1437 | 0.563 | 0.576 | 0.634 | 0.616 | 0.547 | 0.578 | 0.55 | 0.536 | 1.08 | 1.12 | 1.11 | 1.12 | 1.11 | 0.857 | 0.895 | 0.77 | 1.28 | 1.3 | 1.22 |
| NCI-H1650 | 0.381 | 0.459 | 0.431 | 0.355 | 0.508 | 0.492 | 0.408 | 0.442 | 1.25 | 1.5 | 1.32 | 1.1 | 1.31 | 0.656 | 0.569 | 0.425 | 1.44 | 1.23 | 1.18 |
| NCI-H1651 | 0.594 | 0.351 | 0.591 | 0.619 | 0.613 | 0.61 | 0.607 | 0.491 | 1.06 | 1.11 | 1.13 | 0.998 | 1.01 | 0.543 | 0.579 | 0.566 | 0.802 | 0.683 | 0.618 |
